IC50 data for 20 molecules are collected here from US20250129088A1, “CEREBLON E3 UBIQUITIN LIGASE INHIBITOR” (Gan & Lee Pharmaceuticals Co., Ltd., priority 2022, published 2025).

The term IC50 denotes the concentration that inhibits the measured activity by half. Low readings indicate higher potency, high ones lower potency.

What all share (assay type): cell-based
Assay [1] relates to MV-4-11 cells. Briefly: MV-4-11 cell proliferation inhibition, CCK-8. The following applies: Homo sapiens, MV4-11, 96 h, MV-4-11, 4 days. The method, then: The complete medium required for MV-4-11 cells is IMDM (ATCC, Product number: 30-2005) basal medium containing 10% fetal bovine serum. MV-4-11 cells were seeded in a 96-well plate at a density of 7,500 cells/well, and different concentrations of the compound of the present invention and positive control samples Alisertib (source: Bide Pharmaceuticals), Palbociclib (source: Bide Pharmaceuticals), Ibrutinib (source Bide Pharmaceuticals) treated cells. The cells were incubated in a 37° C., 5% CO2 cell incubator for 4 days. Cell viability was detected using the CCK-8 kit (Beyotime, Product number: C0040) according to the manufacturer's instructions. According to the inhibition rate, GraphPad Prism software was used to calculate the IC50 value of each compound for 4 days, and the results are shown in Table 6-8.

Assay [2] relates to VCaP cells. Briefly: VCaP cell proliferation inhibition, CCK-8. The following applies: Homo sapiens, 168 h, 7 days. The text has this:
The complete medium required for VCaP cells is DMEM high glucose (Gibco, Product number: 11995-065) basal medium containing 10% fetal bovine serum. […] Cell viability was detected using the CCK-8 kit (Beyotime, Product number: C0040) according to the manufacturer's instructions.

For assay [3], the system named is LNCaP FGC cells. Briefly: LNCaP FGC cell proliferation inhibition, CCK-8. The following applies: Homo sapiens, 96 h, 4 days. The text has this: The complete medium required for LNCaP FGC cells is RPMI 1640 (ATCC, Product number: 30-2001) basal medium containing 10% fetal calf serum. […] Cell viability was detected using the CCK-8 kit (Beyotime, Product number: C0040) according to the manufacturer's instructions.

Where [4] appears, read: Table 6, positive control Alisertib.
Where [5] appears, read: Table 7, positive control Palbociclib.

With `COc1cc(Nc2ncc3c(n2)-c2ccc(Cl)cc2C(c2c(F)cccc2OC)=NC3)ccc1C(=O)NCCOCCC(=O)N1CCC2(CC1)COc1cc3c(cc1C2)C(=O)N(C1CCC(=O)NC1=O)C3=O` (stereo not drawn) [PROTAC 6, 4-((9-chloro-7-(2-fluoro-6-methoxyphenyl)-5H-benzo[c]pyrimido[4,5-e]azepine-2-yl)amino)-N-(2-(3-(7′-(2,6-dioxopiperidin-3-yl)-6′,8′-dioxo-4′,6′,7′,8′-tetrahydro-2′H-spiro[piperidine-4,3′-pyrano[2,3-f]isoindol]-1-yl)-3-oxopropoxy)ethyl)-2-methoxybenzamide], in assay [1] (setting [4]), the IC50 was 320 nM.

For `COc1cc(Nc2ncc3c(n2)-c2ccc(Cl)cc2C(c2c(F)cccc2OC)=NC3)ccc1C(=O)NCCOCCC(=O)N1CC2(CCc3cc4c(cc3O2)C(=O)N(C2CCC(=O)NC2=O)C4=O)C1` (stereo not drawn) [PROTAC 8, 4-((9-chloro-7-(2-fluoro-6-methoxyphenyl)-5H-benzo[c]pyrimido[4,5-e]azepine-2-yl)amino)-N-(2-(3-(7′-(2,6-dioxopiperidin-3-yl)-6′,8′-dioxo-4′,6′,7′,8′-tetrahydro-3′H-spiro[azetidine-3,2′-pyrano[2,3-f]isoindol]-1-yl)-3-oxopropoxy)ethylbase)-2-methoxybenzamide], in assay [1] (setting [4]), the IC50 was 380 nM.

Take `CC(=O)c1c(C)c2cnc(Nc3ccc(N4CCN(CCOCCC(=O)N5CCC6(CCc7cc8c(cc7O6)C(=O)N(C6CCC(=O)NC6=O)C8=O)CC5)CC4)cn3)nc2n(C2CCCC2)c1=O` (stereo not drawn) [PROTAC 38, 1-(3-(2-(4-(6-((6-acetyl-8-cyclopentyl-5-methyl-7-oxo-7,8-dihydropyridone[2,3-d]pyrimidin-2-yl)amino)pyridin-3-yl)piperazin-1-yl)ethoxy)propionyl)-7′-(2,6-dioxopiperidin-3-yl)-3′,4′-dihydro-6′H-spiro[piperidine-4,2′-pyrano[2,3-f]isoindole]-6′,8′(7′H)-dione]: in assay [1] (setting [5]), the half-inhibitory concentration (IC50) turned out to be 5030 nM.

Turning to `N#Cc1ccc(O[C@H]2CC[C@H](NC(=O)c3ccc(N4CCC(CN5CC6(CCc7cc8c(cc7O6)C(=O)N(C6CCC(=O)NC6=O)C8=O)C5)CC4)nn3)CC2)cc1Cl` (stereo partly drawn) [PROTAC 60], the values for the IC50 in assay [2] and in assay [3] were 1200 nM and 930 nM, respectively.

For `N#Cc1ccc(O[C@H]2CC[C@H](NC(=O)c3ccc(N4CCC5(CC4)CC(N4CCC6(CCc7cc8c(cc7O6)C(=O)N(C6CCC(=O)NC6=O)C8=O)CC4)C5)nn3)CC2)cc1Cl` (stereo partly drawn) [PROTAC 61], the figures for the IC50 in assay [2] and in assay [3] were 80 nM and 2200 nM, respectively.

Consider `N#Cc1ccc(O[C@H]2CC[C@H](NC(=O)c3ccc(N4CC(N5CCC6(CCc7cc8c(cc7O6)CN(C6CCC(=O)NC6=O)C8=O)CC5)C4)nn3)CC2)cc1Cl` (stereo partly drawn) [PROTAC 62], for which the figures for the IC50 in assay [2] and in assay [3] were 100 nM and 1160 nM, respectively.

Regarding `N#Cc1ccc(O[C@H]2CC[C@H](NC(=O)c3ccc(N4CCC5(CC4)CC(N4CCC6(CC4)COc4cc7c(cc46)C(=O)N(C4CCC(=O)NC4=O)C7=O)C5)nn3)CC2)cc1Cl` (stereo partly drawn) [PROTAC 63], the results for the IC50 in assay [2] and in assay [3] were 51 nM and 170 nM, respectively.

Consider `N#Cc1ccc(O[C@H]2CC[C@H](NC(=O)c3ccc(N4CC(N5CCC6(CC5)COc5cc7c(cc5C6)C(=O)N(C5CCC(=O)NC5=O)C7=O)C4)nn3)CC2)cc1Cl` (stereo partly drawn) [PROTAC 64, N-((1r,4r)-4-(3-chloro-4-cyanophenoxy)cyclohexyl)-6-(3-(7′-(2,6-dioxopiperidin-3-yl)-6′,8′-dioxo-4′,6′,7′,8′-tetrahydro-2′H-spiro[piperidine-4,3′-pyran[2,3-f]isoindole]-1-yl)azetidin-1-yl]pyridazine-3-carboxamide], for which the IC50 in assay [2] is 960 nM; in assay [3], 130 nM.

In the case of `N#Cc1ccc(O[C@H]2CC[C@H](NC(=O)c3ccc(N4CCC(CN5CCC6(CC5)COc5cc7c(cc5O6)CN(C5CCC(=O)NC5=O)C7=O)CC4)nn3)CC2)cc1Cl` (stereo partly drawn) [PROTAC 65], the IC50 in assay [2] turned out to be 1.1 nM; in assay [3], 2370 nM.

As for `N#Cc1ccc(O[C@H]2CC[C@H](NC(=O)c3ccc(N4CCC(CN5CCC6(CC5)Cc5cc7c(cc5O6)C(=O)N(C5CCC(=O)NC5=O)C7=O)CC4)nn3)CC2)cc1Cl` (stereo partly drawn) [PROTAC 66, N-((1r,4r)-4-(3-chloro-4-cyanophenoxy)cyclohexyl)-6-(4-((6-(2,6-dioxopiperidine-3-yl)-5,7-dioxo-3,5,6,7-tetrahydrospiro[furo[2,3-f]isoindole-2,4′-piperidinyl]-1′-yl)methyl)piperidin-1-yl) pyridazine-3-carboxamide], the half-maximal inhibitory concentration (IC50) in assay [2] was 50 nM; in assay [3], 3000 nM.

Turning to `N#Cc1ccc(O[C@H]2CC[C@H](NC(=O)c3ccc(N4CC(N5CCC6(CC5)Cc5cc7c(cc5O6)C(=O)N(C5CCC(=O)NC5=O)C7=O)C4)nn3)CC2)cc1Cl` (stereo partly drawn) [PROTAC 67, N-((1r,4r)-4-(3-chloro-4-cyanophenoxy)cyclohexyl)-6-(3-(6-(2,6-dioxypiperidin-3-yl)-5,7-dioxo-3,5,6,7-tetrahydrospiro[furo[2,3-f]isoindole-2,4′-piperidin]-1′-yl)azetidin-1-yl)pyridazine-3-carboxamide], the results for the IC50 in assay [2] and in assay [3] were 6500 nM and 6100 nM, respectively.

With `CC1(C)C(=O)N(c2ccc(C#N)c(C(F)(F)F)c2)C(=S)N1c1ccc(C(=O)N2CCC(F)(CN3CC4(CCc5cc6c(cc5O4)C(=O)N(C4CCC(=O)NC4=O)C6)C3)CC2)c(F)c1` (stereo not drawn) [PROTAC 68], the IC50 in assay [2] came to 30 nM; in assay [3], 3860 nM.

Turning to `CC1(C)C(=O)N(c2ccc(C#N)c(C(F)(F)F)c2)C(=S)N1c1ccc(C(=O)N2CCC(CN3CCC4(CC3)COc3cc5c(cc3C4)C(=O)N(C3CCC(=O)NC3=O)C5=O)CC2)c(F)c1` (stereo not drawn) [PROTAC 69], the IC50 was 4260 nM in assay [2] and 3390 nM in assay [3].

Regarding `CC1(C)C(=O)N(c2ccc(C#N)c(C(F)(F)F)c2)C(=S)N1c1ccc(C(=O)N2CC[C@@H](CN3CCC4(CC3)COc3cc5c(cc3C4)C(=O)N(C3CCC(=O)NC3=O)C5=O)C2)c(F)c1` (stereo partly drawn) [PROTAC 70, 4-(3-(4-((3S)-3-((7′-(2,6-dioxopiperidin-3-yl)-6′,8′-dioxo-4′,6′,7′,8′-tetrahydro-2′H-spiro[piperidine-4,3′-pyrano[2,3-f]isoindole]-1-yl)methyl)pyrrolidine-1-carbonyl)-3-fluorophenyl)-4,4-dimethyl-5-oxo-2-thioimidazolidin-1-yl)-2-(trifluoromethyl)benzonitrile], the results for the half-inhibitory concentration (IC50) in assay [2] and in assay [3] were 9730 nM and 7060 nM, respectively.

For the molecule `CC1(C)C(=O)N(c2ccc(C#N)c(C(F)(F)F)c2)C(=S)N1c1ccc(C(=O)N2CCC(CN3CCC4(CCc5cc6c(cc5O4)CN(C4CCC(=O)NC4=O)C6=O)CC3)CC2)c(F)c1` (stereo not drawn) [PROTAC 72], the IC50 in assay [2] was found to be 7400 nM; in assay [3], 5340 nM.

For the molecule `CC1(C)C(=O)N(c2ccc(C#N)c(C(F)(F)F)c2)C(=S)N1c1ccc(C(=O)N2CC3(CCC(N4CCC5(CC4)COc4cc6c(cc4C5)C(=O)N(C4CCC(=O)NC4=O)C6=O)CC3)C2)c(F)c1` (stereo not drawn) [PROTAC 73, 4-(3-(4-(7-(7′-(2,6-dioxopiperidin-3-yl)-6′,8′-dioxo-4′,6′,7′,8′-tetrahydro-2′H-spiro[piperidin-4,3′-pyrano[2,3-f]isoindol]-1-yl)-2-azaspiro[3.5]nonane-2-carbonyl)-3-fluorophenyl)-4,4-dimethyl-5-oxo-2-thioimidazolidin-1-yl)-2-(trifluoromethyl)benzonitrile], the IC50 stood at 2490 nM in assay [2] and 4530 nM in assay [3].

As for `CC1(C)C(=O)N(c2ccc(C#N)c(C(F)(F)F)c2)C(=S)N1c1ccc(C(=O)N2CCC3(CCC(N4CCC5(CC4)COc4cc6c(cc4C5)C(=O)N(C4CCC(=O)NC4=O)C6=O)CC3)C2)c(F)c1` (stereo not drawn) [PROTAC 74, 4-(3-(4-(8-(7′-(2,6-dioxopiperidin-3-yl)-6′ 8′-dioxo-4′,6′,7′,8′-tetrahydro-2′H-spiro[piperidin-4,3′-pyrano[2,3-f]isoindol]-1-yl)-2-azaspiro[4.5]decane-2-carbonyl)-3-fluorophenyl)-4,4-dimethyl-5-oxo-2-thioimidazolidin-1-yl)-2-(trifluoromethyl)benzonitrile], the IC50 in assay [2] was determined as 3260 nM; in assay [3], 2660 nM.

As to `COC1(CN2CC3(COc4cc5c(cc4C3)C(=O)N(C3CCC(=O)NC3=O)C5=O)C2)CCN(C(=O)c2ccc(N3C(=S)N(c4ccc(C#N)c(C(F)(F)F)c4)C(=O)C3(C)C)cc2F)CC1` (stereo not drawn) [PROTAC 75], the concentration for half-maximal inhibition (IC50) in assay [2] came to 170 nM; in assay [3] it was 530 nM.

On to `COC1(CN2CC3(CCc4cc5c(cc4O3)CN(C3CCC(=O)NC3=O)C5=O)C2)CCN(C(=O)c2ccc(N3C(=S)N(c4ccc(C#N)c(C(F)(F)F)c4)C(=O)C3(C)C)cc2F)CC1` (stereo not drawn) [PROTAC 76], for which the IC50 in assay [2] came out at 350 nM; in assay [3], 3240 nM.

On to `CC(=O)c1c(C)c2cnc(Nc3ccc(N4CCNCC4)cn3)nc2n(C2CCCC2)c1=O` [Palbociclib, reference compound], for which the midpoint of inhibition in assay [1] (setting [5]), the IC50, lay at 2090 nM.
